Source: patent US20250262179A1, “PHARMACEUTICAL COMPOSITION FOR PREVENTING AND/OR TREATING AUTOIMMUNE DISEASES” (NATIONAL CENTER FOR CHILD HEALTH AND DEVELOPMENT, priority 2022, published 2025)

Test system: collagen-induced arthritis (CIA) model rats
Assay: Collagen-induced arthritis (CIA) model: foot volume and arthritis score
Assay type: in vivo, DA/Slc rats
Procedure: For 9 weeks-old female DA/Slc rats, under isoflurane anesthesia employing a simplified inhalation anesthesia device for animals (model type: NARCOBIT-E (type II), Natsume Seisakusho Co., Ltd.), the tail root which is the administration site was shaved with an electric shaver, and 0.05 mL in each of left and right sides of the tail root of all animals for a total of 0.1 mL of the symptom evoking substance administration fluid was intracutaneously administrated with a syringe (Terumo Corporation) and an injection needle (Terumo Corporation). The symptom evoking substance administration fluid was prepared by adding bovine type-II collagen and an equal amount of Incomplete Freund Adjuvant to an interchangeable glass syringe (TOP Corporation), and then mixing well.
The symptom evoking substance was administered only on Day 0, and each test substance was administered before the administration of the symptom evoking substance on the first day. MTX was suspended in 0.5 w/v % methylcellulose 400 solution (MC). ALA employed was aminolevulinic acid hydrochloride, and weights shown below are weights as aminolevulinic acid hydrochloride. […]
For measurement of foot volume, the foot volumes of left and right posterior limbs were each measured on Days 0 (before grouping), 4, 7, 11, 14, and 18 with a Plethysmometer (model type: MK-101P, Muromachi Kikai Co., Ltd.). The foot volume was measured three times per foot, and the average value of the three was calculated. The foot volume of the other foot was similarly measured. The foot volume measurement value of one individual was calculated with the following mathematical formula. […]
The measurement value before grouping was set as the Pre-value and the measurement value at each measurement point after grouping was set as the Post-value, and the value of increase in foot volume (A mL) was calculated by Post-value-Pre-value for each individual.
The arthritis score measurement was measured on each of Days 0 (before grouping), 4, 7, 11, 14, and 18. […] Note that the total sum of left and right arthritis scores was calculated as the score for that individual. […]

[1] = Day 18, oral once a day for 18 days, MTX 0.02 mg/kg, ALA 100 mg/kg, SFC 157 mg/kg

Structure (SMILES): CN(Cc1cnc2nc(N)nc(N)c2n1)c1ccc(C(=O)N[C@@H](CCC(=O)O)C(=O)O)cc1 [MTX, (S)-2-(4-(((2,4-diaminopteridin-6-yl)methyl)methylamino)benzamido) pentanedioic acid]
- intergroup difference to Group 5 (control) in arthritis score [1]: 1.5
- intergroup difference to Group 5 (control) in value of increase in foot volume [1]: 0.16 mL
- anti-inflammatory effect in CIA model rats (Group 1, only MTX 0.02 mg/kg oral daily): a certain level of anti-inflammatory effect was seen
